Measured values taken from publication PMC8890504, “Evolution of Brain-Expressed Biogenic Amine Receptors into Olfactory Trace Amine-Associated Receptors” (Molecular Biology and Evolution, 2022).
Values joined by “and” are separate entries in the source; they are usually repeats but may differ in a detail not shown here. Equal values may be shown once.

Experiments:
TARLL1b = TARLL1b (Petromyzon marinus, UniProt A0AAJ7TCG4); assay: Cell-based receptor activation reporter assay (SEAP / Dual-Glo luciferase); design: species or system sea lamprey; settings: for EC50: TARLL1b
Experimental: (§1) Fluorescence was measured with a BioTek Microplate reader.

hamster TAAR9 = target: T1, hamster TAAR9 (Mesocricetus auratus, UniProt A0A1U7R5X1); assay: as above; settings: table S3
T1 construct: Rho tag (N-terminal 20 aa of bovine rhodopsin); expressed in transfected cells; host or cells: HEK293T (SEAP assay) or Hana3A (Dual-Glo luciferase assay)
T1 sequence (A0A1U7R5X1 1-348): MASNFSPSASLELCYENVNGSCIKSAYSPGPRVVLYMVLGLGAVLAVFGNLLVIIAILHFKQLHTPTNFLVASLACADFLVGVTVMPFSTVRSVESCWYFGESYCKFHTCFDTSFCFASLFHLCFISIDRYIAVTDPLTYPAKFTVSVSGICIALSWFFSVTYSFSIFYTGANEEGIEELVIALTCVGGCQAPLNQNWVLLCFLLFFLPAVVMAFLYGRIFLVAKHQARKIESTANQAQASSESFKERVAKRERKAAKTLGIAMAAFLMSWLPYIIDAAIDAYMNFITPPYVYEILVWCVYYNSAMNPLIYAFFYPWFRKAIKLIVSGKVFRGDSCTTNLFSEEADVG
Experimental: as §1

rat TAAR9 = target: T2, rat TAAR9 (Rattus norvegicus, UniProt Q923Y6); assay: as above; settings: table S3
T2 construct: bovine rhodopsin N-terminal 20 amino acids (Rho tag); expressed in transfected cells; host or cells: HEK293(T) (SEAP assay) or Hana3A (Dual-Glo assay)
T2 sequence (Q923Y6 1-338): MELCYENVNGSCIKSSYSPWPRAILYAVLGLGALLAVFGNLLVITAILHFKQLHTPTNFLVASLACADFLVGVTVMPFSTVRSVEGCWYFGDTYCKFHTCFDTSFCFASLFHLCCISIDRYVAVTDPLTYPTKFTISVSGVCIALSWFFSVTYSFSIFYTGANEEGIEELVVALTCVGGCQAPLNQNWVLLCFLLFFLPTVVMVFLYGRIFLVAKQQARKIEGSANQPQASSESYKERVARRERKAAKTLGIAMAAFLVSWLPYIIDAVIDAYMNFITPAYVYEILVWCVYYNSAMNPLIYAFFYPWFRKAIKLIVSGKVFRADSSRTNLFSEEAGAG
Experimental: as §1

rabbit TAAR9 = target: T3, rabbit TAAR9 (Oryctolagus cuniculus, UniProt G1SUU9); assay: as above; settings: table S3
T3 construct: Rho tag (N-terminal 20 aa of bovine rhodopsin); expressed in transfected cells; host or cells: HEK293T (SEAP assay) or Hana3A (Dual-Glo luciferase assay)
T3 sequence (G1SUU9 1-348): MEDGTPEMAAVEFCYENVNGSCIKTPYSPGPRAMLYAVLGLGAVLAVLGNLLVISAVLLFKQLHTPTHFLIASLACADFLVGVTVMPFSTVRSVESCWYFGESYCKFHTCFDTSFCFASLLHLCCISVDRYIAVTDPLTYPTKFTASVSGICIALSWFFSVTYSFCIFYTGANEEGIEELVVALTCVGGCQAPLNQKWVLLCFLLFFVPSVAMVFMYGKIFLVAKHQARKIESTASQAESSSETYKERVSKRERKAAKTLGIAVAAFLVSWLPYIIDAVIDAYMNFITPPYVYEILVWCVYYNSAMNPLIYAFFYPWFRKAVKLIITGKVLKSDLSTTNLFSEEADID
Experimental: as §1

cat TAAR9 = assay: as above; settings: table S3
Experimental: as §1

mouse TAAR9 = tested on: mouse TAAR9; design: method as in Saraiva et al. 2016; settings: ref Saraiva et al. 2016; cited from earlier work
[1] = tested on: TARLL2a (also called TAAR346a); design: method as in Scott et al. 2019; settings: ref Scott et al. 2019; cited from earlier work
mouse TAAR1 = mouse TAAR1 (Mus musculus, UniProt Q923Y8); assay: cell-based; settings: for response of mouse TAAR1: ligands at 10 µM, luciferase assay, fig. 5B
Description: (§2) Next, we conducted high-throughput screening to further explore the functional properties of these aminergic receptors. We cloned 248 TAARs from 11 mammals (human, mouse, rat, guinea pig, hamster, cat, horse, rabbit, sheep, rhesus, and wild boar), two reptiles (alligator and chicken), six teleosts (zebrafish, catfish, fugu, medaka, salmon, and pufferfish), one lobed-finned fish (coelacanth), one holost fish (spotted gar), and one cartilaginous fish (bamboo shark) (fig. 2A). We also cloned eight TARLs from coelacanth, zebrafish, catfish, fugu, medaka, spotted gar, shark, and 28 TARLLs from sea lamprey (supplementary table S2, Supplementary Material online). In addition, we cloned two HTR4s from mouse and zebrafish. We then challenged all of the cloned receptors with a ligand library comprised 97 amines at 100 µM.
We then compared the responses of HTR4 from mouse and zebrafish, TARL1 from zebrafish, catfish, fugu, medaka, spotted gar, and coelacanth, TARL2 from coelacanth and shark, TAAR1 from mouse and zebrafish to the 16 ligands at 10 µM (fig. 5B).
(§3) HEK293 cells were plated onto poly-D-lysine (Sigma–Aldrich) preincubated 96-well plates (Corning) with 50 µl growth medium (DMEM medium with 10% BCS and 5% penicillin–streptomycin solution) and cultured for 18–24 h. Receptor plasmids were cotransfected with Cre-SEAP plasmid using polyethylenimine (PEI, Polysciences) and incubated at 37 °C with 5% CO2. About 4 h later, cells were incubated with or without test compounds diluted in serum-free DMEM for 48 h, followed by incubating for 2 h at 70 °C. After returning to room temperature, 50 µl supernatant from each well was incubated with an equal volume of 0.3 mM 4-methylumbelliferyl phosphate (4-MUP, Sigma–Aldrich) in 2 M diethanolamine bicarbonate (Sigma–Aldrich), pH 10.0 for 15 min. Fluorescence was measured with a BioTek Microplate reader.
(§4) Hana3A cells were plated onto 96-well plates (Greiner bio-one) with 50 µl growth medium (DMEM medium with 10% BCS and 5% penicillin–streptomycin solution with puromycin) and cultured at 37 °C with 5% CO2. After 18–24 h, cells in each well were cotransfected with 50 ng receptor plasmid, 10 ng CRE-Luc, 10 ng pRL-SV40, and 10 ng mRTPs using Lipofectamine 2000 (Invitrogen), and incubated for 18 h. Medium was then replaced by 25 µl CD293 (Invitrogen) containing 1% glutamine with or without test compounds for 4 h. The chemiluminescence of firefly luciferase and renilla luciferase were measured with a Biotek Microplate reader using the Dual-Glo Luciferase Assay System (Promega).

TARLL4a = TARLL4a (Petromyzon marinus, UniProt A0AAJ7T9R0); assay: Cell-based receptor activation reporter assay (SEAP / Dual-Glo luciferase); design: species or system sea lamprey; settings: for EC50: TARLL4a; for ligand profile of TARLL4a: ligand library at 100 µM, fig. 4B, fig. S9B
Experimental: as §1

TARLL3h = TARLL3h (Petromyzon marinus, UniProt A0A678XJN9); assay: as above; design: species or system sea lamprey; settings: for EC50: TARLL3h; for ligand recognition by TARLL3h: fig. 4C
Experimental: as §1

mouse HTR4 = mouse HTR4 (Mus musculus, UniProt P97288); assay: cell-based
Description: as §2, §3, §4

hamster TAAR3 = hamster TAAR3 (Mesocricetus auratus, UniProt A0A1U7Q6M0); assay: Cell-based receptor activation reporter assay (SEAP / Dual-Glo luciferase)
Experimental: as §1

guinea pig TAAR3 = guinea pig TAAR3 (Cavia porcellus, UniProt H0W7C9); assay: as above
Experimental: as §1

coelacanth TAARC1b = coelacanth TAARC1b (Latimeria chalumnae, UniProt H3A8V0); assay: as above
Experimental: as §1

zebrafish TARL1 = zebrafish TARL1 (Danio rerio, UniProt A0A8M1Q794); assay: as above
Experimental: as §1

coelacanth TARL2 = coelacanth TARL2 (Latimeria chalumnae, UniProt H3AWX3); assay: as above
Experimental: as §1

(UniProt Z9G6W3R3V9) = assay: as above; settings: coelacanth TARL1
Experimental: as §1

zebrafish TAAR1 = zebrafish TAAR1 (Danio rerio, UniProt Q5QNN1); assay: as above; settings: zTAAR1
Experimental: as §1

zebrafish TAAR13c = tested on: zebrafish TAAR13c; design: method as in Hussain et al. 2013; settings: ref Hussain et al. 2013; cited from earlier work
sheep TAAR5 = sheep TAAR5 (Ovis aries, UniProt A0ACI6PZ16); assay: Cell-based receptor activation reporter assay (SEAP / Dual-Glo luciferase)
Experimental: as §1

shark TAARS1b = shark TAARS1b (Chiloscyllium punctatum, UniProt A0A401S5C1); assay: as above; design: species or system bamboo shark
Experimental: as §1

TARLL3h Y3.33F = assay: Site-directed mutagenesis, cell-based receptor activation; design: species or system sea lamprey; settings: mutation of Tyr3.33 to phenylalanine; ligand per fig. S9C
Experimental: (§5) Recognition of diamines in TAARs involves two aspartic acids, Asp^3.32 and Asp^5.42 ([Li et al. 2015]; [Sharma et al. 2016]). However, although Asp^3.32 is retained in TARLL3h, Asp^5.42 is not found, implying a distinct diamine recognition mechanism in TARLL3h. To investigate this further, we performed homology modeling and ligand docking in TARLL3h. In addition to Asp^3.32 that forms a salt bridge with N,N,N′,N′-tetramethyl-1,4-butanediamine or N,N,N′,N′-tetramethyl-1,3-propanediamine, Tyr^3.33 binds to the other amino group through pi–cation interactions in TARLL3h (fig. 4D). […] To verify the docking results, we performed site-directed mutagenesis in TARLL3h.
as §1

TARLL3h D3.32A = assay: as above; design: species or system sea lamprey; settings: mutation of Asp3.32 to alanine; ligand per fig. S9C
Experimental: as §5, §1

TARLL3h Y3.33A = assay: as above; design: species or system sea lamprey; settings: mutation of Tyr3.33 to alanine; ligand per fig. S9C
Experimental: as §5, §1

Chain of TARLL1b (A0AAJ7TCG4 entry or part of it): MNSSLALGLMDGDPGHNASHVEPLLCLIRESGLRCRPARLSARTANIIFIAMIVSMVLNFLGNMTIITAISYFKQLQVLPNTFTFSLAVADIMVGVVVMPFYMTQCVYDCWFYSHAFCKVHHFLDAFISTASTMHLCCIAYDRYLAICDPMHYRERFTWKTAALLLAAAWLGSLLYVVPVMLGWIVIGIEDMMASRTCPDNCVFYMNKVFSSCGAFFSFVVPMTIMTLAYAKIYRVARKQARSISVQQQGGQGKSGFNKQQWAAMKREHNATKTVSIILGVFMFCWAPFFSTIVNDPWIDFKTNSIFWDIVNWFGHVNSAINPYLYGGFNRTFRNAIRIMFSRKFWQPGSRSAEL
Chain of TARLL4a (A0AAJ7T9R0 entry or part of it): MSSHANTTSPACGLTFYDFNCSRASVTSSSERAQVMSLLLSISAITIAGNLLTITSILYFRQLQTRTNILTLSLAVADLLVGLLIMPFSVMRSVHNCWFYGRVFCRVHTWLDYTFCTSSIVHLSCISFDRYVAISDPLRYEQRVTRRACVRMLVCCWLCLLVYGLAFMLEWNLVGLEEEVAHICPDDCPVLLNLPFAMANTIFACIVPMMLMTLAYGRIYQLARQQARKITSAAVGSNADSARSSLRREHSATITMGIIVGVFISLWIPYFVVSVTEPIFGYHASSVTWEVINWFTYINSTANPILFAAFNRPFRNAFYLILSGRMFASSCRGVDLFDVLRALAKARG
Chain of mouse TAAR1 (Q923Y8 whole entry): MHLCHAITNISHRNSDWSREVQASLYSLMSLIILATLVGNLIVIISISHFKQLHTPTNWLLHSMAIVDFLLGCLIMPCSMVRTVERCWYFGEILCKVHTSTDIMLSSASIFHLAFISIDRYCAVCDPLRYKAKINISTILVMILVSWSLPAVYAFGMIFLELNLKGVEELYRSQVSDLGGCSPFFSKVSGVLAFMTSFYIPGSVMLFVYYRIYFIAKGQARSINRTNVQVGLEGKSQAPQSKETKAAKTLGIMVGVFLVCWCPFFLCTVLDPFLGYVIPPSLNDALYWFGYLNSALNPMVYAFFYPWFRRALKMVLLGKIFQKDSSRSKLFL
Chain of TARLL3h (A0A678XJN9 entry or part of it): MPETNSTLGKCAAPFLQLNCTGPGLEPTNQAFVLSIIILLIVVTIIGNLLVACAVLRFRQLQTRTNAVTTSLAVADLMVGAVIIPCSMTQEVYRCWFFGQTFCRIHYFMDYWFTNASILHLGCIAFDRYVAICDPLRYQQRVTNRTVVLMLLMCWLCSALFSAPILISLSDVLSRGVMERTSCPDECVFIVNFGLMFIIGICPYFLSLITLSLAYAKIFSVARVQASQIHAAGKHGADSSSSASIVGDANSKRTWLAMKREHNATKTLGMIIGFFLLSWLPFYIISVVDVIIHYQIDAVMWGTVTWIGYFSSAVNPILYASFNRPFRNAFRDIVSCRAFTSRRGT
Chain of coelacanth TAARC1b (H3A8V0 entry or part of it): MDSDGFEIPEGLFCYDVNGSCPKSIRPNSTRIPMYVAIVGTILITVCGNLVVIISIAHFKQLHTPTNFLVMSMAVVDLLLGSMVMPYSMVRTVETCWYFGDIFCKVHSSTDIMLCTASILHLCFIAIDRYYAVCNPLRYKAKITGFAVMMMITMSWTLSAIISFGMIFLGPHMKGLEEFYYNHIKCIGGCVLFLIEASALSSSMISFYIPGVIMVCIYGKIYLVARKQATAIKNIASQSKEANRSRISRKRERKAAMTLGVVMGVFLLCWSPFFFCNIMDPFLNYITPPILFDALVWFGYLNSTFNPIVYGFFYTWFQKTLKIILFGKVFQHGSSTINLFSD
Chain of hamster TAAR3 (A0A1U7Q6M0 entry or part of it): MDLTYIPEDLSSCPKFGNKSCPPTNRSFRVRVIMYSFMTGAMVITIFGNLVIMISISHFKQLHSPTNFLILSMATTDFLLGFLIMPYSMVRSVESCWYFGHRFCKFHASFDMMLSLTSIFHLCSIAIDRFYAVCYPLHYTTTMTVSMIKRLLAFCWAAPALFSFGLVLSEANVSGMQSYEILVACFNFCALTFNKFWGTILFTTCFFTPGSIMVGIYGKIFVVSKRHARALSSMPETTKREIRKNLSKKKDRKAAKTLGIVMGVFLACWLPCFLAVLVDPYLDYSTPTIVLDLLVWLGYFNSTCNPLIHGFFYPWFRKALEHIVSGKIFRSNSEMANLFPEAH
Chain of sheep TAAR5 (A0ACI6PZ16 entry or part of it): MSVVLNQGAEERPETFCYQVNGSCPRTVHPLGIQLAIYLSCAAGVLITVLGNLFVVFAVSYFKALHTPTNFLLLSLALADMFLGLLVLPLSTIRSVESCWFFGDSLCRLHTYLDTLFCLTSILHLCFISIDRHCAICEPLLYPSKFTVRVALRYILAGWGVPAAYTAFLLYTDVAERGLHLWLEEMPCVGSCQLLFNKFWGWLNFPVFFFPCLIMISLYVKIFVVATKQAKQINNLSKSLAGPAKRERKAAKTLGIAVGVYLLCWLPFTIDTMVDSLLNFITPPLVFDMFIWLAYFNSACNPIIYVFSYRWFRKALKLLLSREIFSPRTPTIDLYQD
Chain of guinea pig TAAR3 (H0W7C9 entry or part of it): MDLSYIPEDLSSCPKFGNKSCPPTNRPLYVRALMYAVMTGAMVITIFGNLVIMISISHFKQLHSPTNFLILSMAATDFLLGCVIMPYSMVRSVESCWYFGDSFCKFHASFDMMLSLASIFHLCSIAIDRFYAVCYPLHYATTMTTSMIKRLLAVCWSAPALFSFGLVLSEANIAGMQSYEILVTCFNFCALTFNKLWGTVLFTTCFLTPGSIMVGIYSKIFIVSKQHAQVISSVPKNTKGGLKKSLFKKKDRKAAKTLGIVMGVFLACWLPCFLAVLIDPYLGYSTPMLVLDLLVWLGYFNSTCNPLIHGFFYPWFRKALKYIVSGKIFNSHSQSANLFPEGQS
Chain of mouse HTR4 (P97288 whole entry): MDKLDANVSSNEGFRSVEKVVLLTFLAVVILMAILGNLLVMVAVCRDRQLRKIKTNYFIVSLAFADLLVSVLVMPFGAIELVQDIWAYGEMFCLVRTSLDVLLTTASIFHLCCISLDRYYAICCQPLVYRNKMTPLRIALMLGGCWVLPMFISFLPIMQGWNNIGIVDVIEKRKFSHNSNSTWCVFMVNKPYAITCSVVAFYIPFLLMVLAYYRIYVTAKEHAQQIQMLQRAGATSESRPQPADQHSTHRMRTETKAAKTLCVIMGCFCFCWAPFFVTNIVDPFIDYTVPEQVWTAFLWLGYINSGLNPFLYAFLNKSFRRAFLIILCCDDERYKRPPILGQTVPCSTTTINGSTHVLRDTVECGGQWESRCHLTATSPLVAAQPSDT
Chain of zebrafish TARL1 (A0A8M1Q794 entry or part of it): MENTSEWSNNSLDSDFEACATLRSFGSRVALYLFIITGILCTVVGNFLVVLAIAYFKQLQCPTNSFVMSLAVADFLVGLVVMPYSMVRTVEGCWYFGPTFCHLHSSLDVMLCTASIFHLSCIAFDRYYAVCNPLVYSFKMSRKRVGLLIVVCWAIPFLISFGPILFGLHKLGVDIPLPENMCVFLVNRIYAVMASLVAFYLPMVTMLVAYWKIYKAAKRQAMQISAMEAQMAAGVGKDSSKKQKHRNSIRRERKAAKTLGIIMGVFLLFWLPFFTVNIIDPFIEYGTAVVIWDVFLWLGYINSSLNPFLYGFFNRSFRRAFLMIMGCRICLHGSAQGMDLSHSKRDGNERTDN
Chain of shark TAARS1b (A0A401S5C1 entry or part of it): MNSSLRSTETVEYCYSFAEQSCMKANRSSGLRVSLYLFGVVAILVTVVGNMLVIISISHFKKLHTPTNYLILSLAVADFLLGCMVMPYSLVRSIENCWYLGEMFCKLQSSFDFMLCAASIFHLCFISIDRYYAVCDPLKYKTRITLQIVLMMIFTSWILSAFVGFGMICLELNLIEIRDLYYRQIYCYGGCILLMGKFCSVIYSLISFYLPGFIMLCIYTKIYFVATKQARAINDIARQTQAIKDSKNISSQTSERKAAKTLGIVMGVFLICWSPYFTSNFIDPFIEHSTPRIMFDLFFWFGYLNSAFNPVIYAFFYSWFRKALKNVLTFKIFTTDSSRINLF
Chain of zebrafish TAAR1 (Q5QNN1 entry or part of it): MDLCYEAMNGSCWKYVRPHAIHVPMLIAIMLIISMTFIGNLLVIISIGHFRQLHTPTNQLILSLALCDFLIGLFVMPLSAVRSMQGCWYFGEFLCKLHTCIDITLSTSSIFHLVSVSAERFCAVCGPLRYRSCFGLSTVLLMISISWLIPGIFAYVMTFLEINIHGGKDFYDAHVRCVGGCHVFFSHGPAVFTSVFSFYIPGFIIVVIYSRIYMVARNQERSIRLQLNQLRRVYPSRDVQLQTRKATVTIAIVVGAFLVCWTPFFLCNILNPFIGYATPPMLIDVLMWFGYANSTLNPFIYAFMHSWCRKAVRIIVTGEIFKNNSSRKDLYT
Chain of coelacanth TARL2 (H3AWX3 entry or part of it): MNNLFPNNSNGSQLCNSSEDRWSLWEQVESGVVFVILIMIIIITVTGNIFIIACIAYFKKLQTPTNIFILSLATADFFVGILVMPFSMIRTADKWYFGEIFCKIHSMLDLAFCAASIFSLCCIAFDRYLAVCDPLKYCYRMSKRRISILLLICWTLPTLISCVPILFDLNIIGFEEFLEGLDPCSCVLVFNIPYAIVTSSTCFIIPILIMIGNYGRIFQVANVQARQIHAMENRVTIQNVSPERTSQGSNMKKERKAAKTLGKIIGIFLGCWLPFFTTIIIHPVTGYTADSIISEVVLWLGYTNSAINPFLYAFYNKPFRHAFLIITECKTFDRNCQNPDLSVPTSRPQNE

Cc1c[nH]c2ccccc12 [3-methylindole]
EC50 (TARLL1b): 6.6 µM

NCCCNCCCCNCCCN [spermine]
activation of TAAR9 (hamster TAAR9): activation
activation of TAAR9 (rat TAAR9): activation
activation of TAAR9 (rabbit TAAR9): activation
activation of TAAR9 (cat TAAR9): activation
ligand recognition by mouse TAAR9 (mouse TAAR9): can recognize
ligand recognition by TARLL2a [1]: recognize

CCCCCCCCN [octylamine]
response of mouse TAAR1 (mouse TAAR1): slight responses

CC(C)N [Isopropylamine, isopropylamine]
EC50 (TARLL4a): 254 µM
ligand profile of TARLL4a (TARLL4a): ligand profile includes

CN(C)CCCN(C)C [N,N,N',N'-tetramethyl-1,3-propanediamine, N,N,N′,N′-Tetramethyl-1,3-propanediamine]
EC50 (TARLL3h): 116 µM
ligand recognition by TARLL3h (TARLL3h): recognizes

c1ccc2[nH]ccc2c1 [Indole, indole]
EC50 (TARLL1b): 18.9 µM
activation of TARLL1b (TARLL1b; fig. 4E, fig. S9D and E): can be activated

CCCCCN [Amylamine, amylamine]
EC50 (TARLL4a): 10.6 µM

COc1ccc2[nH]cc(CCN)c2c1 [5-methoxytryptamine]
EC50 (mouse HTR4): 0.09 µM

CC(C)CN [Isobutylamine, isobutylamine]
EC50 (TARLL4a): 199 µM

CC(C)CCN [Isoamylamine, isoamylamine]
EC50 (TARLL4a): 141 µM
EC50 (hamster TAAR3): 300 µM and ~300 µM
EC50 (guinea pig TAAR3): 200 µM and ~200 µM

NCCc1c[nH]c2ccc(O)cc12 [Serotonin, serotonin]
EC50 (TARLL1b): 0.2 µM
EC50 (coelacanth TAARC1b): 0.83 µM and 0.8 µM
EC50 (zebrafish TARL1): 0.11 µM
EC50 (coelacanth TARL2): 0.39 µM
EC50 ((UniProt Z9G6W3R3V9)): 0.1 µM
EC50 (zebrafish TAAR1): 2.35 µM
EC50 (mouse TAAR1; mTAAR1): 14.4 µM

CCCCCCCN [heptylamine]
ligand profile of TARLL4a (TARLL4a): ligand profile includes
response of mouse TAAR1 (mouse TAAR1): slight responses

CCCCN [Butylamine, butylamine]
EC50 (TARLL4a): 73.5 µM

NCCCCCN [Cadaverine, cadaverine]
activation of TAAR9 (hamster TAAR9): activation
activation of TAAR9 (rat TAAR9): activation
activation of TAAR9 (rabbit TAAR9): activation
activation of TAAR9 (cat TAAR9): activation
activation of TAAR13c (zebrafish TAAR13c): activates
ligand recognition by mouse TAAR9 (mouse TAAR9): can recognize
ligand recognition by TARLL2a [1]: recognize

CCCN [Propylamine, propylamine]
EC50 (TARLL4a): 133 µM

Cc1cccc2cc[nH]c12 [7-methylindole]
EC50 (TARLL1b): 37.8 µM

NCCCCNCCCN [spermidine]
activation of TAAR9 (hamster TAAR9): activation
activation of TAAR9 (rat TAAR9): activation
activation of TAAR9 (rabbit TAAR9): activation
activation of TAAR9 (cat TAAR9): activation
ligand recognition by mouse TAAR9 (mouse TAAR9): can recognize

CCCCCCN [Hexylamine, hexylamine]
EC50 (TARLL4a): 20.4 µM
ligand profile of TARLL4a (TARLL4a): ligand profile includes
response of mouse TAAR1 (mouse TAAR1): slight responses

CSCCCN [3-methylthiopropylamine]
EC50 (TARLL4a): 62.4 µM

Cc1ccc2[nH]ccc2c1 [5-methylindole]
EC50 (TARLL1b): 8.9 µM

CC(C)N(C)C [N,N-dimethylisopropylamine]
EC50 (sheep TAAR5): 50 µM and ~50 µM
EC50 (shark TAARS1b): 40.3 µM

NC1CCCC1 [Cyclopentylamine, cyclopentylamine]
EC50 (TARLL4a): 113 µM

Cn1ccc2ccccc21 [1-methylindole]
EC50 (TARLL1b): 162 µM

NCCCCCO [5-amino-1-pentanol]
EC50 (TARLL4a): 40.3 µM

NC1CCCCC1 [cyclohexylamine]
ligand profile of TARLL4a (TARLL4a): ligand profile includes

CN(C)CCCCN(C)C [N,N,N',N'-tetramethyl-1,4-butanediamine, N,N,N′,N′-tetramethyl-1,4-butanediamine]
EC50 (TARLL3h): 40.4 µM
ligand recognition by TARLL3h (TARLL3h): recognizes
EC50 of TARLL3h mutant Y3.33F relative to wild type receptor (TARLL3h Y3.33F): EC50 three times higher than wild type receptor
receptor activity of TARLL3h mutant D3.32A (TARLL3h D3.32A): completely eliminated the receptor activity
receptor activity of TARLL3h mutant Y3.33A (TARLL3h Y3.33A): completely eliminated the receptor activity

Cc1ccc2cc[nH]c2c1 [6-methylindole]
EC50 (TARLL1b): 9.1 µM
